Measurements from US20040138064A1, “Adjuvant for water soluble herbicides” (priority 2002, published 2004).

Key:
soybeans = assay: Greenhouse spray of glyphosate (0.75 lb AI per 10 gallons per acre) with or without sulfate adjuvant on soybean; format: in vivo, Glycine max; details: for height reduction of soybean, statistical comparison with the no adjuvant case / weight reduction of soybean, statistical comparison with the no adjuvant case: 0 ppm water hardness and 342 ppm water hardness; for Plant Height Soybean % Control 15 DAT / Plant Weight Soybean % Control 15 DAT: no sulfate adjuvant
Excerpt: (§1) The formulations shown in Table 3 and Table 4 are either glyphosate and ammonium sulfate (AMS) or glyphosate and isopropylammonium sulfate (MIPAS). In Table 3 and Table 4, 0 ppm hardness refers to the absence of minerals such as calcium ions and 342 ppm hardness refers to the amount of calcium ions present. The moles of sulfate indicate the amount of isopropylammonium sulfate or ammonium sulfate per liter. The aqueous solution was applied to the plots at a level of 10 gallons per acre. The two tested plants were soybeans (Glycine max) and grain sorghum (Milo), (Sorghum bicolar).
(§2) The herbicidal solutions were applied in a greenhouse using a Spray chamber with an FF nozzle having a nozzle size 8001EVS. The spray apparatus was operated at 38 psi and the height of the nozzle was 9.75 inches. The watering frequency was every 6 hours for 5 minutes. The daytime temperature was 85° F. and the nighttime temperature was 70° F. with a 16 hour day. The soybean was 4-4.5 inches with one trifoliate leaf present when the herbicidal solution was applied. The grain sorghum was 4-8 inches with 3-4 leaves present when the herbicidal solution was applied.
(§3) The Figures show values of moles of ammonium sulfate or isopropylammonium sulfate per liter. The actual solution used on the grain sorghum contained 0.13 pounds of glyphosate active ingredient per 10 gallons of water per acre. The actual solution used on the soybean contained 0.75 pounds glyphosate active ingredient per 10 gallons of water per acre.
(§4) FIGS. 5 and 9 show the height of sorghum and soybean, respectively, when distilled water was used, as a percent reduction of the height of the control after 15 days. FIGS. 6 and 10 show the height of sorghum and soybean, respectively, when hard water was used, as a percent reduction of the height of the control after 15 days. FIGS. 7 and 11 show the fresh weight of sorghum and soybean, respectively, when distilled water was used, as a percent reduction of the weight of the control after 15 days. FIGS. 8 and 12 show the fresh weight of sorghum and soybean, respectively, when hard water was used, as a percent reduction of the weight of the control after 15 days. The plants were harvested and weighed to determine the fresh weight.

grain sorghum (Milo) = assay: Greenhouse spray of glyphosate (0.13 lb AI per 10 gallons per acre) with or without sulfate adjuvant on grain sorghum; format: in vivo, Sorghum bicolar; details: for Plant Height Sorghum % Control 15 DAT / Plant Weight Sorghum % Control 15 DAT: no sulfate adjuvant
Excerpt: as §1, §2, §3, §4
(§5) Bartlett's test (commonly used in the agricultural business) was used to statistically analyze the results.

Velvetleaf = assay: Cabinet spray of glyphosate (about 0.63 lb AI per 10 gallons per acre) with or without sulfate adjuvant on velvetleaf; format: in vivo, ipomoea hederacea (L.) jacq. Var. integriuscula gray; details: for Velvet Leaf % Control 7 DAT / Velvet Leaf % Control 14 DAT / Velvet Leaf % Control 21 DAT / Velvet Leaf Fresh Weight 21 DAT: no sulfate adjuvant
Excerpt: as §1, with “1” for “3”, “2” for “4”, “2,” for “4,”, “1000” for “342”, “Morningglory Entireleaf ([…])” for “soybeans (Glycine max)”, “Velvetleaf ([…]). The term YBI in the Figures indicates the adjuvant was isopropylammonium sulfate.” for “grain sorghum (Milo), (Sorghum bicolar).”
(§6) The herbicidal solutions were applied in a cabinet using a Lodrift nozzle having a nozzle size 110015. The spray apparatus was operated at 40 psi using air as the propellant and water as a carrier. The boom height was 13.5 inches. The ground speed was 2.6 miles per hour. The morningglory was at the three-leaf stage when the herbicidal solution was applied. The velvetleaf was 4-6 inches in height when the herbicidal solution was applied. The normalized spray volume was 10 gallons per acre.
(§7) The Figures show values of pounds of ammonium sulfate or isopropylammonium sulfate per hundred gallons. The actual solutions used were nominally ten gallons of the sulfate in water, e.g. one-tenth of the sulfate per hundred gallons of carrier, with twenty fluid ounces of glyphosate. Twenty fluid ounces of glyphosate contains about 0.63 pounds of glyphosate active ingredient (AI) reported as the isopropylammonium. The glyphosate active ingredient (AI) as the isopropylammonium salt is related to the glyphosate acid equivalents (AE) by the formula: (0.7142)(AI)=AE.
(§8) FIGS. 1 and 3 show the fresh weight of morningglory and velvetleaf, respectively. The fresh weight was determined by cutting the stem of the plant flush with the ground and weighing the plant. The weight is reported as grams per pot since a single plant was grown in each pot. FIGS. 2 and 4 show the percent control at 7, 14 and 21 days for morningglory and velvetleaf, respectively.
as §5

Morningglory Entireleaf = assay: Cabinet spray of glyphosate (about 0.63 lb AI per 10 gallons per acre) with or without sulfate adjuvant on morningglory; format: in vivo, abutilon theophrasti medik; details: for Morning Glory % Control 7 DAT / Morning Glory % Control 14 DAT / Morning Glory % Control 21 DAT / Morning Glory Fresh Weight 21 DAT: no sulfate adjuvant
Excerpt: as §1, with “1” for “3”, “2” for “4”, “2,” for “4,”, “1000” for “342”, “Morningglory Entireleaf ([…])” for “soybeans (Glycine max)”, “Velvetleaf ([…]). The term YBI in the Figures indicates the adjuvant was isopropylammonium sulfate.” for “grain sorghum (Milo), (Sorghum bicolar).”
as §6, §7, §8

[1] = 342 ppm of water hardness, three highest concentrations of MIPAS, two higher concentrations of AMS
[2] = water hardness 0 ppm, AMS at the two highest concentrations, all MIPAS concentrations
[3] = water hardness 1000 ppm, higher concentrations of AMS, all MIPAS
[4] = water hardness 1000 ppm, two higher concentrations of AMS, all the MIPAS treatments

For `N.N.O=S(=O)(O)O` [AMS, ammonium sulfate], the “height reduction of soybean, statistical comparison with the no adjuvant case” value (soybeans) was “not significantly different from the no adjuvant case”, the “weight reduction of soybean, statistical comparison with the no adjuvant case” value (soybeans) was “not significantly different from the no adjuvant case” and the “fresh weight of sorghum, statistical comparison with the no adjuvant case (Bartlett's test)” value (grain sorghum (Milo); 0 ppm water hardness) was “not significantly different from the no adjuvant case”. The “height reduction of sorghum, statistical comparison with the no adjuvant case (Bartlett's test)” value (grain sorghum (Milo); 0 ppm water hardness) was “not significantly different from the no adjuvant case”, the “fresh weight of sorghum, statistical comparison with the no adjuvant case (Bartlett's test)” value (grain sorghum (Milo); [1]) was “significantly different than the no adjuvant case” and the “fresh weight of velvetleaf, statistical comparison with no adjuvant (Bartlett's test)” value (Velvetleaf; water hardness 0 ppm) was “no statistical difference”. The “fresh weight of velvetleaf, statistical comparison with no adjuvant (Bartlett's test)” value (Velvetleaf; water hardness 1000 ppm, MIPAS at the two higher concentrations) was “no statistical difference”, the “height reduction of morningglory, statistical comparison with the no adjuvant case (Bartlett's test)” value (Morningglory Entireleaf; [2]) was “statistically different from the no adjuvant case” and the “fresh weight of morningglory, statistical comparison with the no adjuvant case (Bartlett's test)” value (Morningglory Entireleaf; [3]) was “statistical difference”. For the same compound, the “height reduction of morningglory, statistical comparison with the no adjuvant case (Bartlett's test)” value (Morningglory Entireleaf; [4]) was “statistically different from the no adjuvant case”.

`O=C(O)CNCP(=O)(O)O` [Glyphosate, N-phosphonomethylglycine] was tested, and the “Plant Height Soybean % Control 15 DAT” value (soybeans; water hardness 0 ppm) was 47.55%, the “Plant Weight Soybean % Control 15 DAT” value (soybeans; water hardness 0 ppm) was 75.60% and the “Plant Height Soybean % Control 15 DAT” value (soybeans; water hardness 342 ppm) was 47.77%. The “Plant Weight Soybean % Control 15 DAT” value (soybeans; water hardness 342 ppm) was 59.20%, the “Plant Height Sorghum % Control 15 DAT” value (grain sorghum (Milo); water hardness 0 ppm) was 41.04% and the “Plant Weight Sorghum % Control 15 DAT” value (grain sorghum (Milo); water hardness 0 ppm) was 59.86%. The “Plant Height Sorghum % Control 15 DAT” value (grain sorghum (Milo); water hardness 342 ppm) was 14.55%, the “Plant Weight Sorghum % Control 15 DAT” value (grain sorghum (Milo); water hardness 342 ppm) was 40.97% and the “Velvet Leaf % Control 7 DAT” value (Velvetleaf; water hardness 0 ppm) was 52%. The “Velvet Leaf % Control 14 DAT” value (Velvetleaf; water hardness 0 ppm) was 84%, the “Velvet Leaf % Control 21 DAT” value (Velvetleaf; water hardness 0 ppm) was 88% and the “Velvet Leaf Fresh Weight 21 DAT” value (Velvetleaf; water hardness 0 ppm) was 1.1 grams per pot. The “Velvet Leaf % Control 7 DAT” value (Velvetleaf; water hardness 1000 ppm) was 48%, the “Velvet Leaf % Control 14 DAT” value (Velvetleaf; water hardness 1000 ppm) was 56% and the “Velvet Leaf % Control 21 DAT” value (Velvetleaf; water hardness 1000 ppm) was 52%. The “Velvet Leaf Fresh Weight 21 DAT” value (Velvetleaf; water hardness 1000 ppm) was 1.8 grams per pot, the “Morning Glory % Control 7 DAT” value (Morningglory Entireleaf; water hardness 0 ppm) was 56% and the “Morning Glory % Control 14 DAT” value (Morningglory Entireleaf; water hardness 0 ppm) was 56%. The “Morning Glory % Control 21 DAT” value (Morningglory Entireleaf; water hardness 0 ppm) was 50%, the “Morning Glory Fresh Weight 21 DAT” value (Morningglory Entireleaf; water hardness 0 ppm) was 1.4 grams per pot and the “Morning Glory % Control 7 DAT” value (Morningglory Entireleaf; water hardness 1000 ppm) was 51%. For the same compound, the “Morning Glory % Control 14 DAT” value (Morningglory Entireleaf; water hardness 1000 ppm) was 48%, the “Morning Glory % Control 21 DAT” value (Morningglory Entireleaf; water hardness 1000 ppm) was 46% and the “Morning Glory Fresh Weight 21 DAT” value (Morningglory Entireleaf; water hardness 1000 ppm) was 1.9 grams per pot.

`CC(C)N.CC(C)N.O=S(=O)(O)O` [MIPAS, isopropylammonium sulfate] was tested, and the “height reduction of soybean, statistical comparison with the no adjuvant case” value (soybeans) was “not significantly different from the no adjuvant case”, the “weight reduction of soybean, statistical comparison with the no adjuvant case” value (soybeans) was “not significantly different from the no adjuvant case” and the “fresh weight of sorghum, statistical comparison with the no adjuvant case (Bartlett's test)” value (grain sorghum (Milo); 0 ppm water hardness) was “not significantly different from the no adjuvant case”. For the same compound, the “height reduction of sorghum, statistical comparison with the no adjuvant case (Bartlett's test)” value (grain sorghum (Milo); 0 ppm water hardness) was “not significantly different from the no adjuvant case”, the “fresh weight of sorghum, statistical comparison of MIPAS with AMS (Bartlett's test)” value (grain sorghum (Milo); 342 ppm of water hardness) was “not significantly different from each other” and the “height reduction of sorghum, statistical comparison of MIPAS with AMS (Bartlett's test)” value (grain sorghum (Milo); 342 ppm of water hardness) was “not significantly different than the AMS results”. For the same compound, the “height reduction of sorghum, statistical comparison with the no adjuvant case (Bartlett's test)” value (grain sorghum (Milo); 342 ppm of water hardness) was “significantly different than the no adjuvant case”, the “fresh weight of sorghum, statistical comparison with the no adjuvant case (Bartlett's test)” value (grain sorghum (Milo); [1]) was “significantly different than the no adjuvant case” and the “fresh weight of velvetleaf, statistical comparison with no adjuvant (Bartlett's test)” value (Velvetleaf; water hardness 0 ppm) was “no statistical difference”. For the same compound, the “height reduction of velvetleaf, statistical comparison with the no adjuvant case (Bartlett's test)” value (Velvetleaf; water hardness 0 ppm and 1000 ppm) was “statistically different from the no adjuvant case”, the “height reduction of velvetleaf, statistical comparison of MIPAS with AMS (Bartlett's test)” value (Velvetleaf; water hardness 0 ppm, high MIPAS concentrations) was “statistically different from the AMS results” and the “fresh weight of velvetleaf, statistical comparison of MIPAS with AMS (Bartlett's test)” value (Velvetleaf; water hardness 1000 ppm) was “no statistically significant difference”. The “height reduction of velvetleaf, statistical comparison of MIPAS with AMS (Bartlett's test)” value (Velvetleaf; water hardness 1000 ppm) was “not statistically significant”, the “fresh weight of morningglory, statistical comparison of MIPAS with AMS (Bartlett's test)” value (Morningglory Entireleaf; water hardness 0 ppm) was “no statistically significant difference” and the “fresh weight of morningglory, statistical comparison with the no adjuvant case (Bartlett's test)” value (Morningglory Entireleaf; water hardness 0 ppm) was “statistical difference”. For the same compound, the “height reduction of morningglory, statistical comparison of MIPAS with AMS (Bartlett's test)” value (Morningglory Entireleaf; water hardness 0 ppm) was “no statistically significant difference”, the “height reduction of morningglory, statistical comparison with the no adjuvant case (Bartlett's test)” value (Morningglory Entireleaf; [2]) was “statistically different from the no adjuvant case” and the “fresh weight of morningglory, statistical comparison of MIPAS with AMS (Bartlett's test)” value (Morningglory Entireleaf; water hardness 1000 ppm) was “no statistically significant difference”. The “height reduction of morningglory, statistical comparison of MIPAS with AMS (Bartlett's test)” value (Morningglory Entireleaf; water hardness 1000 ppm) was “not statistically significant”, the “fresh weight of morningglory, statistical comparison with the no adjuvant case (Bartlett's test)” value (Morningglory Entireleaf; [3]) was “statistically different from the no adjuvant case” and the “height reduction of morningglory, statistical comparison with the no adjuvant case (Bartlett's test)” value (Morningglory Entireleaf; [4]) was “statistically different from the no adjuvant case”.
